Laboratory results reported in the RepoRT retention time repository (doi:10.1021/acs.analchem.2c02893).

Assay: RP, Thermo Scientific Acclaim RSLC 120 C18, 100 × 2.1 mm, 2.2 µm, 30 °C, 0.2 mL/min, estimated dead time 1.1 min; A: 90% water + 10% methanol + 0.01% formic acid + 5 mM ammonium formate, pH 3.61; B: methanol + 0.01% formic acid + 5 mM ammonium formate, pH 3.61; gradient (min/%B) 0/1 1/1 2/39 13/99.9 15/99.9 15.1/1 20.1/1
Conditions: stereoisomer not certain

| SMILES | LC retention time [min] |
| --- | --- |
| CC(C)(C)C(=O)C(Oc1ccc(Cl)cc1)n1ccnc1 (stereo not given) [Climbazole] | 10.1 |
| CCCC1CC(C(=O)NC(C(C)Cl)C2OC(SC)C(O)C(O)C2O)N(C)C1 (stereo not given) [Clindamycin] | 6.92 |
| CN1C(=O)CC(=O)N(c2ccccc2)c2cc(Cl)ccc21 [Clobazam] | 8.08 |
| CN(C)CCN1C(=O)c2ccccc2Nc2cc(Cl)ccc21 [Clobenzepam] | 6.32 |
| CC(Cc1ccccc1)NCc1ccccc1Cl (stereo not given) [Clobenzorex] | 6.82 |
| CCC(=O)OC1(C(=O)CCl)C(C)CC2C3CCC4=CC(=O)C=CC4(C)C3(F)C(O)CC21C (stereo not given) [Clobetasol propionate] | 10.6 |
| CC1CC2C3CCC4=CC(=O)C=CC4(C)C3(F)C(O)CC2(C)C1(O)C(=O)CCl (stereo not given) [Clobetasol] | 9.44 |
| CCCC(=O)OC1(C(=O)CCl)C(C)CC2C3CCC4=CC(=O)C=CC4(C)C3(F)C(=O)CC21C (stereo not given) [Clobetasone butyrate] | 11.3 |
| CC(CN(C)C)C(C)(O)Cc1ccc(Cl)cc1 (stereo not given) [Clobutinol] | 6.31 |
| C#CCOC(=O)C(C)Oc1ccc(Oc2ncc(Cl)cc2F)cc1 (stereo not given) [Clodinafop-propargyl] | 10.7 |
| Clc1ccccc1-c1nnc(-c2ccccc2Cl)nn1 [Clofentezine] | 11.5 |
| CCOC(=O)C(C)(C)Oc1ccc(Cl)cc1 [Clofibrate] | 11 |
| CC1(C)CON(Cc2ccccc2Cl)C1=O [Clomazone  (Command)] | 8.89 |
| Cc1ncsc1CCCl [Clomethiazole] | 6.69 |
| CN(C)CCCN1c2ccccc2CCc2ccc(Cl)cc21 [Clomipramine] | 9.21 |
| Nc1ccc2c(c1)C(c1ccccc1Cl)=NCC(=O)N2 [Clonazepam- 7-Amino] | 4.86 |
| O=C1CN=C(c2ccccc2Cl)c2cc([N+](=O)[O-])ccc2N1 [Clonazepam] | 7.61 |
| Cc1nnc2n1-c1ccc([N+](=O)[O-])cc1C(c1ccccc1Cl)=NC2 [Clonazolam] | 7.24 |
| Clc1cccc(Cl)c1NC1=NCCN1 [Clonidine] | 3.83 |
| CC1CCCC(C)N1NC(=O)c1ccc(Cl)c(S(N)(=O)=O)c1 (stereo not given) [Clopamide] | 6.01 |
| Clc1ccc(C(OCCN2CCCCC2)c2ccccc2)cc1 (stereo not given) [Cloperastine] | 8.46 |
| O=C(O)C(c1ccccc1Cl)N1CCc2sccc2C1 (stereo not given) [Clopidogrel Carbon acid] | 5.56 |
| COC(=O)C(c1ccccc1Cl)N1CCc2sccc2C1 (stereo not given) [Clopidogrel] | 11.8 |

| SMILES | LC retention time [min] |
| --- | --- |
| Cc1[nH]c(C)c(Cl)c(=O)c1Cl [Clopidol] | 4.2 |
| O=C(O)c1nc(Cl)ccc1Cl [Clopyralid] | 3.06 |
| CC(C)NCC(O)c1ccccc1Cl (stereo not given) [Clorprenaline] | 4.76 |
| CNC(=N[N+](=O)[O-])NCc1cnc(Cl)s1 [Clothiandin] | 4.9 |
| CN1CCN(C2=Nc3ccccc3Sc3ccc(Cl)cc32)CC1 [Clothiapine] | 8.96 |
| CCc1cc2c(s1)N(C)C(=O)CN=C2c1ccccc1Cl [Clotiazepam] | 10.2 |
| Clc1ccccc1C(c1ccccc1)(c1ccccc1)n1ccnc1 [Clotrimazole] | 11.2 |
| Clc1ccc2c(c1)N=C(N1CCNCC1)c1ccccc1N2 [Clozapine-Nor] | 7.29 |
| CN1CCN(C2=Nc3cc(Cl)ccc3Nc3ccccc32)CC1 [Clozapine] | 7.19 |
| CCOC(=O)C1C(OC(=O)c2ccccc2)CC2CCC1N2C (stereo not given) [Cocaethylene] | 5.46 |
| COC(=O)C1C(OC(=O)c2ccccc2)CC2CCC1N2C (stereo not given) [Cocaine] | 4.84 |
| COc1ccc2c3c1OC1C(O)CCC4C(C2)N(C)CCC341 (stereo not given) [Codeine-Dihydro] | 3.36 |
| COc1ccc2c3c1OC1C(O)C=CC4C(C2)NCCC341 (stereo not given) [Codeine-Nor] | 3.5 |
| COc1ccc2c3c1OC1C(O)C=CC4C(C2)N(C)CCC341 (stereo not given) [Codeine] | 3.4 |
| CC12CCC(=O)C=C1CCC1C2C(O)CC2(C)C(C(=O)CO)CCC12 (stereo not given) [Corticosterone] | 8.74 |
| CC12CCC(=O)C=C1CCC1C2C(=O)CC2(C)C1CCC2(O)C(=O)CO (stereo not given) [Cortisone E  (4-Pregnene-17.21-diol-3.11.20-trione)] | 7.41 |
| CN1C(=O)C(O)CC1c1cccnc1 (stereo not given) [Cotinine-Hydroxy] | 3.13 |
| CC(=O)CC(c1ccc(Cl)cc1)c1c(O)c2ccccc2oc1=O (stereo not given) [Coumachlor] | 10.2 |
| CCOP(=S)(OCC)Oc1ccc2c(C)c(Cl)c(=O)oc2c1 [Coumaphos] | 11.2 |
| Cc1cc(N(C)C)nc(Cl)n1 [Crimidine] | 6.2 |
| C=C(c1ccccc1OCc1cccc(Cl)c1)n1ccnc1 [Croconazole] | 10.7 |
| CC=CC(=O)N(CC)c1ccccc1C [Crotamiton] | 9.24 |
| CC=CC(=O)N(CC)C(CC)C(=O)N(C)C (stereo not given) [Crotethamide] | 6.13 |

| SMILES | LC retention time [min] |
| --- | --- |
| COP(=O)(OC)OC(C)=CC(=O)OC(C)c1ccccc1 (stereo not given) [Crotoxyphos] | 9.39 |
| CNP(=O)(OC)Oc1ccc(C(C)(C)C)cc1Cl (stereo not given) [Crufomate] | 10.5 |
| CCCCCn1nc(C(=O)NC(C)(C)c2ccccc2)c2ccccc21 [Cumyl-PINACA] | 12.5 |
| CC(CN(C)C)CN1c2ccccc2Sc2ccc(C#N)cc21 (stereo not given) [Cyamemazine] | 7.52 |
| CCNc1nc(Cl)nc(NC(C)(C)C#N)n1 [Cyanazine] | 6.55 |
| CCOP(=S)(Oc1ccc(C#N)cc1)c1ccccc1 (stereo not given) [Cyanofenphos] | 10.9 |
| COP(=S)(OC)Oc1ccc(C#N)cc1 [Cyanophos] | 8.27 |
| Cc1ccc(-c2c(Cl)nc(C#N)n2S(=O)(=O)N(C)C)cc1 [Cyazofamid] | 10.3 |
| O=S(=O)(O)NC1CCCCC1 [Cyclamic acid] | 6.99 |
| CN1CCN(C(c2ccccc2)c2ccccc2)CC1 [Cyclizine] | 6.94 |
| CCSC(=O)N(CC)C1CCCCC1 [Cycloate] | 11.7 |
| CN(C)CCC=C1c2ccccc2C=Cc2ccccc21 [Cyclobenzaprine] | 7.95 |
| CC1CC(C)C(=O)C(C(O)CC2CC(=O)NC(=O)C2)C1 (stereo not given) [Cycloheximide] | 5.99 |
| CN(C)CCOC(=O)C(c1ccccc1)C1(O)CCCC1 (stereo not given) [Cyclopentolate] | 6.16 |
| CCCc1nn(C)c2c(=O)[nH]c(-c3cc(S(=O)(=O)N4CCN(C5CCCC5)CC4)ccc3OCC)nc12 [Cyclopentynafil] | 9.01 |
| O=P1(N(CCCl)CCCl)NCCCO1 (stereo not given) [Cyclophosphamide] | 6.24 |
| COc1cc(C=C2CCCC(=Cc3ccc(O)c(OC)c3)C2=O)ccc1O [Cyclovalone] | 9.59 |
| CN(C)C(=O)NC1CCCCCCC1 [Cycluron] | 8.47 |
| CC1(C)C(C=C(Cl)Cl)C1C(=O)OC(C#N)c1ccc(F)c(Oc2ccccc2)c1 (stereo not given) [Cyfluthrin (Baythroid)] | 13 |
| CC1(C)C(C=C(Cl)C(F)(F)F)C1C(=O)OC(C#N)c1cccc(Oc2ccccc2)c1 (stereo not given) [Cyhalothrin (lambda-)] | 13 |
| CCNC(=O)NC(=O)C(C#N)=NOC [Cymoxanil] | 5.6 |
| CC(C)Nc1nc(Cl)nc(NC2CC2)n1 [Cyprazin] | 8.22 |
| CC(C1CC1)C(O)(Cn1cncn1)c1ccc(Cl)cc1 (stereo not given) [Cyproconazole] | 9.89 |

| SMILES | LC retention time [min] |
| --- | --- |
| Cc1cc(C2CC2)nc(Nc2ccccc2)n1 [Cyprodinil] | 11 |
| CN1CCC(=C2c3ccccc3C=Cc3ccccc32)CC1 [Cyproheptadine] | 7.89 |
| CC(=O)C1(O)CCC2C3C=C(Cl)C4=CC(=O)C5CC5C4(C)C3CCC21C (stereo not given) [Cyproterone] | 10.1 |
| Nc1ccn(C2OC(CO)C(O)C2O)c(=O)n1 (stereo not given) [Cytarabin] | 1.39 |
| COP(=S)(OC)Oc1ccc(S(N)(=O)=O)cc1 [Cythioate] | 6.19 |
| CC(=O)OC1C(C)OC(n2cc(F)c(N)nc2=O)C1OC(C)=O (stereo not given) [Cytidine-2' 3'-di-O-acetyl-5'-deoxy-5-fluoro] | 5.06 |
| Nc1[nH]c(=O)ncc1F [Cytosine-5-Fluoro (broad peak)] | 1.43 |
| CNCCCC(C#N)(c1ccc(OC)c(OC)c1)C(C)C (stereo not given) [D617 (met. of verapamil)] | 6.14 |
| CCN(CC)C(=O)c1cccc(C)c1 [DEET (Diethyltoluamide)] | 8.2 |
| CCN(CC)CCc1c[nH]c2ccccc12 [DET] | 4.34 |
| CC(C)N(CCc1c[nH]c2cccc(O)c12)C(C)C [DIPT- 4-OH] | 4.34 |
| COc1ccc(CC(C)N)cc1OC (stereo not given) [DMA (3-4-)] | 3.94 |
| CCC(C)CC(C)N (stereo not given) [DMAA (Methylhexanamine)] | 4.68 |
| CNC(C)C(=O)c1ccc(C)c(C)c1 (stereo not given) [DMMC (3-4-)] | 5.23 |
| COc1ccc(CCN)cc1OC [DMPEA] | 3.53 |
| CN(C)S(=O)(=O)Nc1ccccc1 [DMSA (N N-Dimethylaminosulfanilide)] | 6.28 |
| Cc1ccc(NS(=O)(=O)N(C)C)cc1 [DMST (N.N-Dimethyl-N'-p-tolylsulphamide)] | 7.25 |
| CN(C)CCc1c[nH]c2ccccc12 [DMT (Dimethyltryptamine)] | 3.94 |
| COc1cc(CC(C)N)c(OC)cc1Br (stereo not given) [DOB] | 5.93 |
| COc1cc(CC(C)N)c(OC)cc1Cl (stereo not given) [DOC] | 5.67 |
| CCc1cc(OC)c(CC(C)N)cc1OC (stereo not given) [DOET] | 6.88 |
